Assay results: publication PMC9229798, “Antioxidant Activity and Cytotoxicity of Aromatic Oligosulfides” (Molecules, 2022)
“Also recorded” adds a separate entry of the source.

What was measured:
[1] = Ferrous ions (Fe2+) chelating activity (FIC); conditions: for IC50: Fe2+ chelating activity; for FIC, % of Inhibition: compound 5 mM, ferrozine–Fe2+ complex formation
Text: Despite the important biological role of iron, it can cause various pathological diseases, such as neurodegenerative, liver and heart diseases, cancer, and diabetes. In addition, it is able to catalyze the Fenton reaction and lead to the formation of a highly reactive hydroxyl radical. In this regard, the process of transition metal chelation was studied as one of the possible mechanisms of the action of antioxidants. This assay was based on the reaction of binding Fe^2+ ions by the studied compounds under moderately acidic conditions (pH = 6). Unreacted Fe^2+ ions reacted with ferrozine to form a stable dark violet colored complex. […] The chelation of ferrous ions by compounds was estimated by method of Dinis et al.. Briefly, 10 μL of 2 mM FeCl2 was added to 20 μL of the investigated compound (5 mM) and 150 μL of EtOH. The reaction was initiated by the addition of 0.04 mL of 5 mM ferrozine solution. The mixture was left to stand at 35 °C for 10 min. The absorbance of the solution was thereafter measured at 562 nm. The percentage inhibition of ferrozine–Fe^2+ complex formation was calculated as [(A0 − As)/[…]] × 100, where A0 is the absorbance of the control, and As is the absorbance of the compound/standard. Na2EDTA was used as the positive control.

[2] = tested on: MCF-7; assay: MTT assay; assay type: cell-based, human; conditions: Homo sapiens, MCF7, 72 h
Description: (§1) The antiproliferative activity of aromatic oligosulfides 1–6 was determined against human cell lines, including colon carcinoma HCT-116, breast adenocarcinoma MCF-7, lung adenocarcinoma A-549, colorectal carcinoma SW-480, and non-tumourigenic WI-38, using the MTT assay (Table 4). […] However, some selectivity for cancer cells was evident and the IC50 values for non-tumourigenic cells were slightly higher for compounds 1 and 2.
(§2) Cell survival was determined by the MTT [3-(4,5-[…])-2,5-diphenyl tetrazolium bromide] assay by Niks method with small modifications. HCT-116 (colon carcinoma), MCF-7 (breast adenocarcinoma), A-549 (lung adenocarcinoma) and SW-480 (colorectal carcinoma) human cancer cell lines and WI-38 (cell line composed of fibroblasts) were cultured in DMEM (PanEco, Moscow, Russia) with Glutamin (PanEco, Moscow, Russia) and antibiotics (PanEco, Moscow, Russia) in CO2 (5%) at 37 °C. The compounds were dissolved (20 mM) in DMSO and then added to the cell culture medium at the required concentration with a maximum DMSO content of 0.5 v/v%. At these concentrations, DMSO had no effect on cell viability, as was shown in the control experiments. Cells were cultured in 96-well plates (7000 cells/well) and treated with various concentrations (from […]) of the test compounds as well as doxorubicin at 37 °C for 72 h. Cell viability was determined using the MTT assay, which quantified dehydrogenase activity. Then, the cells were incubated at 37 °C for 50 min with a solution of MTT ([…], 5 mg × mL^−1) (Sigma-Aldrich, St. Louis, MO, USA). The supernatant was discarded, and cells were dissolved in DMSO ([…]). The optical density of the solution was measured at 570 nm with use of a multiwall-plate reader (Anthos Zenyth 2000rt, Biochrom, Cambridge, UK), and the percentage of surviving cells was calculated from the absorbance of untreated cells. Each experiment was repeated at least three times, and each concentration was tested in at least three replicates. Data were presented as a graph of the percentage of surviving cells versus the concentration of the test substances. The meanings of 50% inhibition concentration (IC50) with standard deviation were calculated using GraphPad Prism Version 5.03 for Windows (GraphPad Software, San Diego, CA, USA).

[3] = tested on: A-549; assay: MTT assay; assay type: cell-based, human; conditions: Homo sapiens, A549, 72 h
Description: as §1, §2

[4] = tested on: HCT-116; assay: MTT assay; assay type: cell-based, human; conditions: Homo sapiens, HCT-116, 72 h
Description: as §1, §2

[5] = tested on: SW-480; assay: MTT assay; assay type: cell-based, human; conditions: Homo sapiens, SW480, 72 h
Description: as §1, §2

[6] = NBT assay, superoxide radical anion formation by xanthine oxidase; assay type: biochemical; conditions: sample solution 5 mM in DMSO
Text: The superoxide radical anion was generated in the xanthine/xanthine oxidase enzymatic system and reduced nitroblue tetrazolium (NBT) to an intensely blue colored diformazan (λ = 560 nm). There was a decrease in the concentration of diformazan in the presence of a potential antioxidant that absorbs O2^–•. […] Despite the fact that compounds 2 and 6 were structurally similar to the corresponding disulfides 3 and 4, they were not active in this assay.
EDTA, xanthine, bovine serum albumin, nitroblue tetrazolium, and xanthine oxidase (25 MU) were purchased from Sigma Aldrich, Burlington, MA, USA. The superoxide anions were generated enzymatically by the xanthine oxidase system. The reaction mixture consisted of 2.70 mL of 40 mM sodium carbonate buffer containing 0.1 mM EDTA (pH 10.0), 0.06 mL of 10 mM xanthine, 0.03 mL of 0.5% bovine serum albumin, 0.03 mL of 2.5 mM nitroblue tetrazolium, and 0.06 mL of the sample solution in DMSO at the concentration of 5 mM. An amount of 0.12 mL of xanthine oxidase (0.04 units) was added to the mixture at 25 °C, and the absorbance at 560 nm (by formation of blue formazan) was measured by microplate spectrophotometer for 60 s. A control experiment was carried out by replacing the sample solution with the same amount of DMSO.
Inhibition I (%) = [(1 − Ai/A0) × 100%], where Ai is the absorbance in the presence of the testing compound, A0 is the absorbance of the blank solution [78]. All experiments were performed three times.

[7] = tested on: WI-38; assay: MTT assay; assay type: cell-based; conditions: Homo sapiens, 72 h, non-tumourigenic cells
Description: as §1, §2

| SMILES | IC50 [1] [µM] | FIC, % of Inhibition [1] [%] | IC50 [2] [µM] | IC50 [3] [µM] | IC50 [4] [µM] | IC50 [5] [µM] | NBT, % Inhibition [6] | IC50 [7] [µM] |
| --- | --- | --- | --- | --- | --- | --- | --- | --- |
| c1ccc(SSSc2ccccc2)cc1 [Compound 1, diphenyl trisulfide] | 7760 ± 20 | 25.8 ± 1.1 | 37.6 ± 3.7 | 43.6 ± 10.1 | 18.8 ± 1.4 | 23.8 ± 4.5 | non active | 52.7 ± 8.5 |
| CC(C)(C)c1cc(SSc2cc(C(C)(C)C)c(O)c(C(C)(C)C)c2)cc(C(C)(C)C)c1O [Compound 6, bis(3,5-di-tert-butyl-4-hydroxyphenyl) disulfide] | 6100 ± 10 | – | > 50 | > 50 | > 50 | > 50 | not active; also recorded: non active | 115 ± 75 |
| c1ccc(SSc2ccccc2)cc1 [Compound 5, diphenyl disulfide] | 3740 ± 20 | – | 34.8 ± 12.2 | 39.2 ± 8.7 | 22.1 ± 1.7 | 30.6 ± 5.6 | non active | 33.7 ± 9.1 |
| COc1ccc(SSc2ccc(OC)c(OC)c2)cc1OC [Compound 3, bis(3,4-dimethoxyphenyl) disulfide] | > 10000 | 7.5 ± 0.3 | 37.7 ± 2.7 | 15.5 ± 3.4 | 18.9 ± 2.1 | 21.7 ± 2.4 | 24.3 ± 0.05% | 32.8 ± 5.4 |
| COc1ccccc1SSc1ccccc1OC [Compound 2, bis(2-methoxyphenyl) disulfide] | > 10000 | 7.1 ± 0.2 | 30.5 ± 5.2 | 29.6 ± 7.5 | 24.4 ± 2.3 | 22.4 ± 3.8 | not active; also recorded: non active | 31.9 ± 5.2 |
| Oc1ccc(SSc2ccc(O)cc2)cc1 [Compound 4, 4,4′-dihydroxydiphenyl disulfide] | 5620 ± 40 | 47.2 ± 1.5 | 45.3 ± 3.1 | 29.7 ± 6.1 | 22 ± 1.5 | 39.4 ± 7.9 | 57.8 ± 0.07% | 28.7 ± 5.3 |
